Data taken from the supplement of paper PMC10307832.

Compound: CN(C/C=C/C1=CC=C(C=C1)Cl)CC2=CC=CC=C2N(CCO)S(=O)(=O)C3=CC=C(C=C3)OC [KN-93] + CC(=O)c1c(C)c2cnc(Nc3ccc(N4CCNCC4)cn3)nc2n(C2CCCC2)c1=O [Palbociclib] (partner 0.5 µM)
Experiment: relative viability (nuclei count vs DMSO), 5 days (fraction); higher = more cells survive
Method in brief: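 Lung cancer cell lines were pin-tool dosed in 1536-well plates on the day after seeding, with either a lone drug or a fixed anchor-drug dose plus five library-drug doses (not always all listed) in √10 steps. Nuclei were counted on 4× images after 5 days. Relative viability is the ratio of treated-well to vehicle-well nuclei counts, with each value a median of duplicate plates.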

Row | Cell Line | relative viability (first compound 0.08 µM) | relative viability (first compound 0.253 µM) | relative viability (first compound 2.53 µM) | relative viability (first compound 8 µM)
1 | 201T | 0.359 | 0.376 | 0.367 | 0.306
2 | A-427 | 0.555 | 0.533 | 0.511 | 0.41
3 | ABC-1 | 0.691 | 0.64 | 0.571 | 0.336
4 | BEN | 0.482 | 0.448 | 0.523 | 0.465
5 | CAL-12T | 0.37 | 0.52 | 0.232 | 0.3
6 | COR-L23 | 0.272 | 0.289 | 0.303 | 0.24
7 | COR-L 105 | 0.456 | 0.412 | 0.391 | 0.333
8 | ChaGo-K-1 | 0.899 | 1.02 | 0.946 | 0.829
9 | EKVX | 0.433 | 0.34 | 0.365 | 0.265
10 | EMC-BAC-2 | 0.564 | 0.53 | 0.537 | 0.46
11 | EPLC-272H | 0.321 | 0.279 | 0.354 | 0.346
12 | H3255 | 0.322 | 0.303 | 0.3 | 0.266
13 | HARA | 0.29 | 0.261 | 0.229 | 0.195
14 | HCC-15 | 0.671 | 0.82 | 0.735 | 0.513
15 | HCC-44 | 1.04 | 0.878 | 0.979 | 0.79
16 | HCC-78 | 0.47 | 0.513 | 0.446 | 0.427
17 | HCC-366 | 0.407 | 0.531 | 0.563 | 0.221
18 | HCC-827 | 0.591 | 0.492 | 0.845 | 0.422
19 | HOP-62 | 0.461 | 0.573 | 0.552 | 0.477
20 | LC-2-ad | 0.491 | 0.517 | 0.529 | 0.452
21 | LCLC-97TM1 | 0.293 | 0.227 | 0.207 | 0.158
22 | LCLC-103H | 0.472 | 0.458 | 0.49 | 0.518
23 | LK-2 | 0.775 | 1.12 | 0.834 | 0.559
24 | LOU-NH91 | 0.542 | 0.562 | 0.56 | 0.512

Row | Cell Line | relative viability (first compound 0.08 µM) | relative viability (first compound 0.253 µM) | relative viability (first compound 2.53 µM) | relative viability (first compound 8 µM)
25 | LU99A | 0.455 | 0.457 | 0.397 | 0.371
26 | LXF-289 | 0.512 | 0.672 | 0.628 | 0.552
27 | NCI-H23 | 0.516 | 0.493 | 0.618 | 0.418
28 | NCI-H322M | 0.481 | 0.503 | 0.494 | 0.445
29 | NCI-H358 | 0.14 | 0.136 | 0.138 | 0.131
30 | NCI-H441 |  | 0.171 | 0.185 | 0.147
31 | NCI-H460 | 0.167 | 0.0991 | 0.147 | 0.205
32 | NCI-H520 | 0.219 | 0.218 | 0.251 | 0.201
33 | NCI-H522 | 1.1 | 1.31 | 1 | 0.81
34 | NCI-H647 | 0.346 | 0.364 | 0.349 | 0.473
35 | NCI-H650 | 0.314 | 0.307 | 0.327 | 0.271
36 | NCI-H661 | 0.439 | 0.409 | 0.308 | 0.308
37 | NCI-H727 | 0.606 |  | 0.67 | 0.655
38 | NCI-H838 | 0.222 | 0.182 | 0.216 | 0.212
39 | NCI-H1355 | 0.427 | 0.342 | 0.436 | 0.332
40 | NCI-H1395 | 0.602 | 0.69 | 0.598 | 0.478
41 | NCI-H1437 | 0.325 | 0.285 | 0.271 | 0.294
42 | NCI-H1650 | 0.377 | 0.323 | 0.391 | 0.269
43 | NCI-H1651 | 0.511 | 0.536 | 0.582 | 0.488
44 | NCI-H1666 | 0.639 | 0.656 | 0.669 | 0.622
45 | NCI-H1734 | 0.345 | 0.396 | 0.335 | 0.263
46 | NCI-H1755 | 0.478 | 0.462 | 0.45 | 0.455
47 | NCI-H1792 | 0.401 | 0.649 | 0.796 | 0.605
48 | NCI-H1793 | 0.38 | 0.311 | 0.318 | 0.253

Row | Cell Line | relative viability (first compound 0.08 µM) | relative viability (first compound 0.253 µM) | relative viability (first compound 2.53 µM) | relative viability (first compound 8 µM)
49 | NCI-H1915 | 0.536 | 0.537 | 0.513 | 0.438
50 | NCI-H1944 | 0.368 | 0.328 | 0.327 | 0.243
51 | NCI-H1975 | 0.475 | 0.477 | 0.742 | 0.193
52 | NCI-H1993 | 0.628 | 0.563 | 0.595 | 0.498
53 | NCI-H2009 | 0.244 | 0.204 | 0.217 | 0.196
54 | NCI-H2023 | 0.384 | 0.436 | 0.49 | 0.227
55 | NCI-H2085 | 0.484 | 0.427 | 0.456 | 0.387
56 | NCI-H2087 | 0.228 | 0.218 | 0.208 | 0.175
57 | NCI-H2126 | 0.341 | 0.333 | 0.362 | 0.354
58 | NCI-H2170 | 0.35 | 0.48 | 0.403 | 0.338
59 | NCI-H2228 | 0.723 | 0.97 | 1.09 | 0.165
60 | NCI-H2347 | 0.378 | 0.44 | 0.434 | 0.407
61 | NCI-H2405 | 0.561 | 0.594 | 0.547 | 0.471
62 | NCI-H3122 | 0.127 | 0.181 | 0.229 | 0.184
63 | PC-3 [JPC-3] | 0.49 | 0.476 | 0.591 | 0.569
64 | PC-14 | 0.483 | 0.607 | 0.751 | 0.35
65 | RERF-LC-KJ | 1.03 | 1 | 1.16 | 0.8
66 | SK-LU-1 | 0.439 | 0.451 | 0.41 | 0.314
67 | SK-MES-1 | 0.367 | 0.301 | 0.354 | 0.284
68 | SW 900 | 0.539 | 0.592 | 0.509 | 0.471
69 | SW 1573 | 0.395 | 0.47 | 0.429 | 0.15
70 | UMC-11 | 0.35 | 0.306 | 0.35 | 0.322
